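All cell lines were grown in 96-well plates and treated with compound for 48 hours. GI50: concentration for 50% inhibition of growth.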 Active and inactive are the calls of the source. Cut-off read from the data, not from the text of the source: active = GI50 up to about 1.1 µM and inactive = higher.
What was measured:
Experiment in all cases: inhibition of tumour cell growth, NCI panel, 48 h
SNB-19 = tested on: SNB-19
RXF 393 = tested on: RXF 393
COLO 205 = tested on: COLO 205
KM12 = tested on: KM12
MOLT-4 = tested on: MOLT-4
BT-549 = tested on: BT-549
RPMI-8226 = tested on: RPMI-8226
MDA-MB-435 = tested on: MDA-MB-435
LOX IMVI = tested on: LOX IMVI
Malme-3M = tested on: Malme-3M
SF-539 = tested on: SF-539
OVCAR-3 = tested on: OVCAR-3
NCI-H226 = tested on: NCI-H226
M14 = tested on: M14
ACHN = tested on: ACHN
HT-29 = tested on: HT-29
SN12C = tested on: SN12C
UACC-62 = tested on: UACC-62
HCC 2998 = tested on: HCC 2998
SF-268 = tested on: SF-268
SK-OV-3 = tested on: SK-OV-3
MDA-MB-231 = tested on: MDA-MB-231
HOP-62 = tested on: HOP-62
TK-10 = tested on: TK-10
T47D = tested on: T47D
SK-MEL-5 = tested on: SK-MEL-5
HOP-92 = tested on: HOP-92
K562 = tested on: K562
UACC-257 = tested on: UACC-257
MDA-N = tested on: MDA-N
SK-MEL-2 = tested on: SK-MEL-2
HCT-15 = tested on: HCT-15
SR = tested on: SR
OVCAR-5 = tested on: OVCAR-5
NCI-H522 = tested on: NCI-H522
MCF7 = tested on: MCF7
A498 = tested on: A498
UO-31 = tested on: UO-31
OVCAR-8 = tested on: OVCAR-8
SF-295 = tested on: SF-295
DU-145 = tested on: DU-145
SK-MEL-28 = tested on: SK-MEL-28
786-0 = tested on: 786-0
Hs-578T = tested on: Hs-578T
EKVX = tested on: EKVX
A549 = tested on: A549
NCI-H460 = tested on: NCI-H460
NCI/ADR-RES = tested on: NCI/ADR-RES
CCRF-CEM = tested on: CCRF-CEM
SW-620 = tested on: SW-620
U-251 = tested on: U-251
NCI-H23 = tested on: NCI-H23
OVCAR-4 = tested on: OVCAR-4
HL-60 = tested on: HL-60
CAKI-1 = tested on: CAKI-1
HCT-116 = tested on: HCT-116
SNB-75 = tested on: SNB-75
IGROV-1 = tested on: IGROV-1
PC-3 = tested on: PC-3

Measured: GI50

Cn1nc(S(N)(=O)=O)s/c1=N/C(N)=S
inactive: SNB-19 > 100 µM | RXF 393 > 100 µM | COLO 205 > 100 µM | KM12 > 100 µM | MOLT-4 > 100 µM | BT-549 > 100 µM | RPMI-8226 > 100 µM | MDA-MB-435 > 100 µM | LOX IMVI > 100 µM | Malme-3M > 100 µM | SF-539 > 100 µM | OVCAR-3 > 100 µM | NCI-H226 > 100 µM | M14 > 100 µM | ACHN > 100 µM | HT-29 > 100 µM | SN12C > 100 µM | UACC-62 > 100 µM | HCC 2998 > 100 µM | SF-268 > 100 µM | SK-OV-3 > 100 µM | MDA-MB-231 > 100 µM | HOP-62 > 100 µM | TK-10 > 100 µM | T47D > 100 µM | SK-MEL-5 > 100 µM | HOP-92 > 100 µM | K562 > 100 µM | UACC-257 > 100 µM | MDA-N > 100 µM | SK-MEL-2 > 100 µM | SR > 100 µM | OVCAR-5 > 100 µM | NCI-H522 > 100 µM | MCF7 > 100 µM | A498 > 100 µM | UO-31 > 100 µM | OVCAR-8 > 100 µM | SF-295 > 100 µM | DU-145 > 100 µM | SK-MEL-28 > 100 µM | 786-0 > 100 µM | Hs-578T > 100 µM | EKVX > 100 µM | A549 > 100 µM | NCI-H460 > 100 µM | NCI/ADR-RES > 100 µM | CCRF-CEM > 100 µM | SW-620 > 100 µM | U-251 > 100 µM | NCI-H23 > 100 µM | OVCAR-4 > 100 µM | HL-60 > 100 µM | CAKI-1 > 100 µM | HCT-116 > 100 µM
> 100 µM: HCT-15

COC(=O)[C@H](Cc1ccccc1)NC(=O)N(CCN(CCC#N)C(=O)N[C@H](C(=O)OC)C(C)C)c1ccccc1
> 100 µM: HCT-15
inactive: SNB-19 > 100 µM | RXF 393 > 100 µM | COLO 205 > 100 µM | KM12 > 100 µM | MOLT-4 24.3 µM | BT-549 > 100 µM | RPMI-8226 33.2 µM | MDA-MB-435 85.3 µM | LOX IMVI > 100 µM | Malme-3M 43.7 µM | SF-539 > 100 µM | OVCAR-3 > 100 µM | NCI-H226 > 100 µM | M14 > 100 µM | ACHN > 100 µM | SN12C > 100 µM | UACC-62 48.5 µM | HCC 2998 > 100 µM | SF-268 > 100 µM | SK-OV-3 > 100 µM | MDA-MB-231 > 100 µM | HOP-62 > 100 µM | TK-10 > 100 µM | T47D 49.4 µM | SK-MEL-5 52.6 µM | SNB-75 > 100 µM | HOP-92 22.8 µM | UACC-257 32.1 µM | MDA-N > 100 µM | SK-MEL-2 41.8 µM | IGROV-1 57.5 µM | OVCAR-5 > 100 µM | NCI-H522 30.3 µM | MCF7 > 100 µM | A498 > 100 µM | UO-31 > 100 µM | OVCAR-8 > 100 µM | SF-295 > 100 µM | DU-145 > 100 µM | SK-MEL-28 > 100 µM | PC-3 > 100 µM | 786-0 > 100 µM | Hs-578T > 100 µM | EKVX > 100 µM | A549 > 100 µM | NCI/ADR-RES > 100 µM | CCRF-CEM 33.7 µM | SW-620 > 100 µM | U-251 > 100 µM | NCI-H23 > 100 µM | OVCAR-4 53.3 µM | CAKI-1 > 100 µM | HCT-116 > 100 µM

Source: ChEMBL document CHEMBL1201862, “PubChem BioAssay data set” (2004)
